Where two headings read alike, the source gives them in different places.
Target: 11β-HSD1 (Homo sapiens, UniProt P28845)
Assay: biochemical
Settings: for IC50: IC50 Range, Biological Test Example 1, microsomes from CHO cells overexpressing human 11β-HSD1
[1] = read-out: Average % inhibition at 100 nM, Biological Test Example 1, 100 nM

Sequence of 11β-HSD1 (P28845 whole entry): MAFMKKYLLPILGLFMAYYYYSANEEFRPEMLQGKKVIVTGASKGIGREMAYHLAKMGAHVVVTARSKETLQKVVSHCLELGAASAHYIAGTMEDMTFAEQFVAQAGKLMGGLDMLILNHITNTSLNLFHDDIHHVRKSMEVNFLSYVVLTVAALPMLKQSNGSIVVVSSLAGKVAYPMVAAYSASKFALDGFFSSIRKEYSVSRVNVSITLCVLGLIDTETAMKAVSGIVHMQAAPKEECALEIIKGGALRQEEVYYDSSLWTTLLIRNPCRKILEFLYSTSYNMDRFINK

Row | Compound | IC50 | inhibition at 0.1 µM [1] | inhibition at 0.1 µM (read-out: Average % inhibition at 100 nM)
1 | C[C@@H](c1cccc(Br)c1)N1CC[C@](CCCO)(c2ccc(F)cc2)OC1=O [EXAMPLE 354, (R)-3-((S)-1-(3-bromophenyl)ethyl)-6-(4-fluorophenyl)-6-(3-hydroxypropyl)-1,3-oxazinan-2-one] | < 100 nM | 95.2% | 
2 | CC(O)C[C@]1(c2ccc(F)cc2)CCN([C@@H](C)c2cccc(Br)c2)C(=O)O1 (stereo partly drawn) [EXAMPLE 355, (6S)-3-((S)-1-(3-bromophenyl)ethyl)-6-(4-fluorophenyl)-6-(2-hydroxypropyl)-1,3-oxazinan-2-one] | < 100 nM |  | 95.5%
3 | C[C@@H](c1cccc(Br)c1)N1CC[C@](CC(C)(C)O)(c2ccc(F)cc2)OC1=O [EXAMPLE 356, (S)-3-((S)-1-(3-bromophenyl)ethyl)-6-(4-fluorophenyl)-6-(2-hydroxy-2-methylpropyl)-1,3-oxazinan-2-one] | < 100 nM | 92% | 
4 | C[C@@H](c1cccc(Br)c1)N1CC[C@](CCC(C)(C)O)(c2ccc(F)cc2)OC1=O [EXAMPLE 357, (R)-3-((S)-1-(3-bromophenyl)ethyl)-6-(4-fluorophenyl)-6-(3-hydroxy-3-methylbutyl)-1,3-oxazinan-2-one] | < 100 nM | 60.7% | 
5 | C[C@@H](c1cccc(C#N)c1)N1CC[C@](CCCOC(=O)C(F)(F)F)(c2ccc(F)cc2)OC1=O [EXAMPLE 361, 3-((R)-3-((S)-1-(3-cyanophenyl)ethyl)-6-(4-fluorophenyl)-2-oxo-1,3-oxazinan-6-yl)propyl 2,2,2-trifluoroacetate] | < 100 nM | 67.4% | 
6 | C=CC[C@]1(c2ccc(F)cc2)CCN([C@@H](C)c2cccc(C(=O)OC)c2)C(=O)O1 [EXAMPLE 362, Methyl 3-((S)-1-((R)-6-allyl-6-(4-fluorophenyl)-2-oxo-1,3-oxazinan-3-yl)ethyl)benzoate] | < 100 nM | 93.4% | 
7 | C[C@@H](c1cccc(CO)c1)N1CC[C@](CCCO)(c2ccc(F)cc2)OC1=O [EXAMPLE 363, (R)-6-(4-fluorophenyl)-3-((S)-1-(3-(hydroxymethyl)phenyl)ethyl)-6-(3-hydroxypropyl)-1,3-oxazinan-2-one] | < 100 nM | 74.5% | 
8 | Cc1ccc([C@H](C)N2CC[C@](CCCO)(c3ccc(F)cc3)OC2=O)cn1 [EXAMPLE 367, (R)-6-(4-fluorophenyl)-6-(3-hydroxypropyl)-3-((S)-1-(6-methylpyridin-3-yl)ethyl)-1,3-oxazinan-2-one] | < 100 nM | 44.8% | 
9 | CC[C@@H](c1ccc(Br)cc1)N1CC[C@](CCC(N)=O)(c2ccc(F)cc2)OC1=O [EXAMPLE 368, 3-((R)-3-((S)-1-(4-bromophenyl)propyl)-6-(4-fluorophenyl)-2-oxo-1,3-oxazinan-6-yl)propanamide] | < 100 nM | 96.9% | 
10 | C[C@@H](c1ccc(Br)cc1)N1CC[C@](CCN2CCC2)(c2ccc(F)cc2)OC1=O [EXAMPLE 374, (R)-6-(2-(azetidin-1-yl)ethyl)-3-((S)-1-(4-bromophenyl)ethyl)-6-(4-fluorophenyl)-1,3-oxazinan-2-one] | < 100 nM | 52.2% | 
11 | C[C@@H](c1ccc(Br)cc1)N1CC[C@](CCNCCF)(c2ccc(F)cc2)OC1=O [EXAMPLE 375, (R)-3-((S)-1-(4-bromophenyl)ethyl)-6-(2-(2-fluoroethylamino)ethyl)-6-(4-fluorophenyl)-1,3-oxazinan-2-one] | < 100 nM | 70.9% | 
12 | C[C@@H](c1ccc(Br)cc1)N1CC[C@](CCN2CC[C@H](F)C2)(c2ccc(F)cc2)OC1=O [EXAMPLE 377, (R)-3-((S)-1-(4-bromophenyl)ethyl)-6-(4-fluorophenyl)-6-(2-((S)-3-fluoropyrrolidin-1-yl)ethyl)-1,3-oxazinan-2-one] | < 100 nM | 72% | 
13 | C[C@@H](c1ccc(Br)cc1)N1CC[C@](CCN2CC[C@@H](F)C2)(c2ccc(F)cc2)OC1=O [EXAMPLE 378, (R)-3-((S)-1-(4-bromophenyl)ethyl)-6-(4-fluorophenyl)-6-(2-((R)-3-fluoropyrrolidin-1-yl)ethyl)-1,3-oxazinan-2-one] | < 100 nM | 70% | 
14 | C[C@@H](c1ccc(Cl)cc1)N1CC[C@](CCC(C)(C)O)(c2ccc(F)cc2)OC1=O [EXAMPLE 382, (R)-3-((S)-1-(4-chlorophenyl)ethyl)-6-(4-fluorophenyl)-6-(3-hydroxy-3-methylbutyl)-1,3-oxazinan-2-one] | < 100 nM | 81.3% | 
15 | C[C@@H](c1ccc(Cl)cc1)N1CC[C@](CCCNS(C)(=O)=O)(c2ccc(F)cc2)OC1=O [EXAMPLE 384, N-(3-((R)-3-((S)-1-(4-chlorophenyl)ethyl)-6-(4-fluorophenyl)-2-oxo-1,3-oxazinan-6-yl)propyl)methanesulfonamide] | < 100 nM | 89.2% | 
16 | C[C@@H](c1ccc(C(F)(F)F)cc1)N1CC[C@](CCO)(c2ccc(F)cc2)OC1=O [EXAMPLE 387, (S)-6-(4-fluorophenyl)-6-(2-hydroxyethyl)-3-((S)-1-(4-(trifluoromethyl)phenyl)ethyl)-1,3-oxazinan-2-one] | < 100 nM | 95.8% | 
17 | C[C@@H](c1ccc(Br)cc1)N1CC[C@](CCCO)(c2ccccc2)OC1=O [EXAMPLE 392, (R)-3-((S)-1-(4-bromophenyl)ethyl)-6-(3-hydroxypropyl)-6-phenyl-1,3-oxazinan-2-one] | < 100 nM |  | 

Further lines, with some results ahead:

Row | IC50 | inhibition at 0.1 µM [1] | Compound | inhibition at 0.1 µM (read-out: Average % inhibition at 100 nM)
18 | < 100 nM | 84% | C[C@@H](c1cccc(Br)c1)N1CC[C@](CCC(N)=O)(c2ccc(F)cc2)OC1=O [EXAMPLE 358, 3-((R)-3-((S)-1-(3-bromophenyl)ethyl)-6-(4-fluorophenyl)-2-oxo-1,3-oxazinan-6-yl)propanamide] | 
19 | < 100 nM | 67.5% | C[C@@H](c1cccc(Br)c1)N1CC[C@](CCCNS(C)(=O)=O)(c2ccc(F)cc2)OC1=O [EXAMPLE 359, N-(3-((R)-3-((S)-1-(3-bromophenyl)ethyl)-6-(4-fluorophenyl)-2-oxo-1,3-oxazinan-6-yl)propyl)methanesulfonamide] | 
20 | < 100 nM | 97% | C[C@@H](c1cccc(Cl)c1)N1CC[C@](CCCO)(c2ccc(F)cc2)OC1=O [EXAMPLE 360, (R)-3-((S)-1-(3-chlorophenyl)ethyl)-6-(4-fluorophenyl)-6-(3-hydroxypropyl)-1,3-oxazinan-2-one] | 
21 | < 100 nM | 66.3% | C=CC[C@]1(c2ccc(F)cc2)CCN([C@@H](C)c2cccc(C(C)(C)O)c2)C(=O)O1 [EXAMPLE 364, (R)-6-allyl-6-(4-fluorophenyl)-3-((S)-1-(3-(2-hydroxypropan-2-yl)phenyl)ethyl)-1,3-oxazinan-2-one] | 
22 | < 100 nM | 95.1% | C[C@@H](c1ccc(Br)cc1)N1CC[C@](CCCO)(c2ccc(F)cc2F)OC1=O [EXAMPLE 366, (R)-3-((S)-1-(4-bromophenyl)ethyl)-6-(2,4-difluorophenyl)-6-(3-hydroxypropyl)-1,3-oxazinan-2-one] | 
23 | < 100 nM | 89.1% | C[C@@H](c1ccc(Br)cc1)N1CC[C@](CCC(C)(C)O)(c2ccc(F)cc2)OC1=O [EXAMPLE 373, (R)-3-((S)-1-(4-bromophenyl)ethyl)-6-(4-fluorophenyl)-6-(3-hydroxy-3-methylbutyl)-1,3-oxazinan-2-one] | 
24 | < 100 nM | 50.3% | C[C@@H](c1ccc(Br)cc1)N1CC[C@](CCN2CCCC2)(c2ccc(F)cc2)OC1=O [EXAMPLE 376, (R)-3-((S)-1-(4-bromophenyl)ethyl)-6-(4-fluorophenyl)-6-(2-(pyrrolidin-1-yl)ethyl)-1,3-oxazinan-2-one] | 
25 | < 100 nM | 57.7% | C[C@@H](c1ccc(Br)cc1)N1CC[C@](CCN2CCNC(=O)C2)(c2ccc(F)cc2)OC1=O [EXAMPLE 379, (R)-3-((S)-1-(4-bromophenyl)ethyl)-6-(4-fluorophenyl)-6-(2-(3-oxopiperazin-1-yl)ethyl)-1,3-oxazinan-2-one] | 
26 | < 100 nM | 97.2% | C[C@@H](c1ccc(Cl)cc1)N1CC[C@](CCO)(c2ccc(F)cc2)OC1=O [EXAMPLE 380, (S)-3-((S)-1-(4-chlorophenyl)ethyl)-6-(4-fluorophenyl)-6-(2-hydroxyethyl)-1,3-oxazinan-2-one] | 
27 | < 100 nM | 97.2% | C[C@@H](c1ccc(Cl)cc1)N1CC[C@](CC(C)(C)O)(c2ccc(F)cc2)OC1=O [EXAMPLE 381, (S)-3-((S)-1-(4-chlorophenyl)ethyl)-6-(4-fluorophenyl)-6-(2-hydroxy-2-methylpropyl)-1,3-oxazinan-2-one] | 
28 | < 100 nM | 52.5% | NC(=O)c1ccc(-c2ccccc2CN2CCC(CCCO)(c3ccc(F)cc3)OC2=O)cc1 (centres unmarked) [EXAMPLE 386, 2′((6-(4-fluorophenyl)-6-(3-hydroxypropyl)-2-oxo-1,3-oxazinan-3-yl)methyl)biphenyl-4-carboxamide] | 
29 | < 100 nM | 96.4% | C[C@@H](c1ccc(C(F)(F)F)cc1)N1CC[C@](CCCNS(C)(=O)=O)(c2ccc(F)cc2)OC1=O [EXAMPLE 389, N-(3-((R)-6-(4-fluorophenyl)-2-oxo-3-((S)-1-(4-(trifluoromethyl)phenyl)ethyl)-1,3-oxazinan-6-yl)propyl)methanesulfonamide] | 
30 | < 100 nM | 96.3% | C[C@@H](c1ccc(C(F)(F)F)cc1)N1CC[C@](CC(C)(C)O)(c2ccc(F)cc2)OC1=O [EXAMPLE 390, (S)-6-(4-fluorophenyl)-6-(2-hydroxy-2-methylpropyl)-3-((S)-1-(4-(trifluoromethyl)phenyl)ethyl)-1,3-oxazinan-2-one] | 
31 | < 100 nM | 99.1% | C[C@@H](c1ccc(Br)cc1)N1CC[C@](CCCNS(C)(=O)=O)(c2ccccc2)OC1=O [EXAMPLE 394, N-(3-((R)-3-((S)-1-(4-bromophenyl)ethyl)-2-oxo-6-phenyl-1,3-oxazinan-6-yl)propyl)methanesulfonamide] | 
32 | < 100 nM |  | C[C@@H](c1ccc(Br)cc1)N1CC[C@](CCO)(c2ccccc2)OC1=O [EXAMPLE 396, (S)-3-((S)-1-(4-bromophenyl)ethyl)-6-(2-hydroxyethyl)-6-phenyl-1,3-oxazinan-2-one] | 

Reference: US8575156B2, “Cyclic inhibitors of 11β-hydroxysteroid dehydrogenase 1” (Vitae Pharmaceuticals, Inc., priority 2007, dated 2013)
